The nature of series [1]: Solubility in bio-relevant media. The format is physicochemical. The note with it: for solubility at 24 h: salts; for pH value: solubility sample of salt.
The nature of series [2]: Form A and Form B inter-conversion study (competitive slurry, XRPD). The format is physicochemical. The method, then: Competitive slurry experiments were conducted to evaluate the relative stability of Form A and Form B. Inter-conversion study was performed at room temperature and 50° C. using single and binary solvents listed in the Table 1 below. About 80 mg (100 mg for 50° C.) of Form A and Form B (1:1, w/w) was weighed into sample vials (8 mL) and then 3 mL (2 mL for 50° C.) of solvents were added to each vial. The obtained suspensions were kept stirring for 7 days at room temperature and 50° C., then filtered at specified time. The wet and dried solids were analyzed by XRPD (dried in vacuum oven at 45° C.).
Form B was dominant in tested solvent systems with water activity below 0.15 at room temperature (24˜27° C.). […] Pure Form A and Form B were stable during drying process (50° C., vacuum) for at least 2 days.

For orientation: solubility means the concentration that dissolves in the medium under given conditions. With `C=CC(=O)Nc1cc(Nc2nccc(Nc3cc(Cl)c(F)cc3C(C)(C)O)n2)c(OC)cc1N1CC[C@@H](N(C)C)C1.O=C(O)/C=C/C(=O)O` [Fumaric acid salt, (R)—N-(5-((4-((5-chloro-4-fluoro-2-(2-hydroxypropan-2-yl)phenyl)amino)pyrimidin-2-yl)amino)-2-(3-(dimethylamino)pyrrolidin-1-yl)-4-methoxyphenyl)acrylamide fumarate], the solubility at 24 h was > 10.1 mg/mL in series [1] (FaSSIF); > 9.75 mg/mL in series [1] (FeSSIF); > 12.2 mg/mL in series [1] (SGF, simulated gastric fluid). In addition, the pH value in series [1] (FaSSIF) is 5.22; in series [1] (FeSSIF) it was 4.94; in series [1] (SGF) it was 3.98.
With `C=CC(=O)Nc1cc(Nc2nccc(Nc3cc(Cl)c(F)cc3C(C)(C)O)n2)c(OC)cc1N1CC[C@@H](N(C)C)C1` [Form A and Form B (1:1, w/w), (R)-N-(5-((4-((5-chloro-4-fluoro-2-(2-hydroxypropan-2-yl)phenyl)amino)pyrimidin-2-yl)amino)-2-(3-(dimethylamino)pyrrolidin-1-yl)-4-methoxyphenyl)acrylamide], the “XRPD results of slurry” value is given as “A + B” in series [2] (1% water/acetone, 24~27° C., 1 d, after dry); “A + B” in series [2] (1% water/acetone, 24~27° C., 1 d, before dry); “A + B” in series [2] (1% water/acetone, 24~27° C., 3 d, after dry); “A + B” in series [2] (1% water/acetone, 24~27° C., 3 d, before dry); “A + B(increased)” in series [2] (1% water/acetone, 24~27° C., 7 d, before dry); “A + B” in series [2] (30% water/acetone, 24~27° C., 1 d, after dry). Further, the “XRPD results of slurry” value in series [2] (30% water/acetone, 24~27° C., 1 d, before dry) was “A + B”; in series [2] (30% water/acetone, 24~27° C., 7 d, before dry), “A + B”; in series [2] (30% water/acetone, 50° C., 1 d, after dry), “A + B”; in series [2] (30% water/acetone, 50° C., 1 d, before dry) it was “A + B”; in series [2] (Acetone (no water), 50° C., 1 d, before dry), “A (minor) + B”; in series [2] (Acetone(no water), 24~27° C., 1 d, after dry), “A + B”. The “XRPD results of slurry” value in series [2] (Acetone(no water), 24~27° C., 1 d, before dry) is given as “A + B”; in series [2] (Acetone(no water), 24~27° C., 3 d, after dry), “A + B”; in series [2] (Acetone(no water), 24~27° C., 3 d, before dry), “A + B”; in series [2] (Acetone(no water), 24~27° C., 7 d, before dry), “A + B(increased)”; in series [2] (EtOH/IPA (1/1), 24~27° C., 1 d, after dry), “A + B”; in series [2] (EtOH/IPA (1/1), 24~27° C., 1 d, before dry) it was “A + B”. In addition, the “XRPD results of slurry” value in series [2] (EtOH/IPA (1/1), 24~27° C., 7 d, before dry) is given as “A + B(increased)”; in series [2] (EtOH/IPA (7/2), 24~27° C., 1 d, after dry), “A + B”; in series [2] (EtOH/IPA (7/2), 24~27° C., 1 d, before dry), “A + B”; in series [2] (EtOH/IPA (7/2), 24~27° C., 7 d, before dry) it was “A + B(increased)”; in series [2] (EtOH/water (1/1), 24~27° C., 1 d, after dry), “A + B”; in series [2] (EtOH/water (1/1), 24~27° C., 1 d, before dry), “A + B”. The “XRPD results of slurry” value in series [2] (EtOH/water (1/1), 24~27° C., 7 d, before dry) is listed as “A + B”; in series [2] (Water, 24~27° C., 1 d, after dry) it was “A + B”; in series [2] (Water, 24~27° C., 1 d, before dry), “A + B”; in series [2] (Water, 24~27° C., 3 d, after dry), “A + B”; in series [2] (Water, 24~27° C., 3 d, before dry), “A + B”; in series [2] (Water, 24~27° C., 7 d, before dry), “A + B”. Besides, the “XRPD results of slurry” value in series [2] (Water, 50° C., 1 d, after dry) is “A + B”; in series [2] (Water, 50° C., 1 d, before dry), “A + B”; in series [2] (Water, 50° C., 3 d, after dry) it was “A + B”; in series [2] (Water, 50° C., 3 d, before dry), “A + B”; in series [2] (Water, 50° C., 7 d, before dry), “A + B”.
As to `C=CC(=O)Nc1cc(Nc2nccc(Nc3cc(Cl)c(F)cc3C(C)(C)O)n2)c(OC)cc1N1CC[C@@H](N(C)C)C1.Cl` [Hydrochloric acid salt, (R)—N-(5-((4-((5-chloro-4-fluoro-2-(2-hydroxypropan-2-yl)phenyl)amino)pyrimidin-2-yl)amino)-2-(3-(dimethylamino)pyrrolidin-1-yl)-4-methoxyphenyl)acrylamide Hydrochloride], the solubility at 24 h in series [1] (FaSSIF) was 1.95 mg/mL; in series [1] (FeSSIF) it was > 11.1 mg/mL; in series [1] (SGF, simulated gastric fluid), 11.8 mg/mL. Besides, the pH value in series [1] (FaSSIF) is 6.62; in series [1] (FeSSIF) it was 5.44; in series [1] (SGF), 5.65.
